Laboratory results taken from patent publication US11752165B2, “Basic chemotherapeutic intratumour injection formulation” (US NANO FOOD & DRUG, INC., priority 2020, dated 2023).
In brackets after ≈: the same amount, converted by molar mass. Entries after “also recorded” stand apart in the source; their conditions may differ. Where a name gives a salt, the structure may show the parent alone. Read-outs that look alike come from different tables or passages of the source.

What was measured:
[1] = Stability of the basic (free base) chemical; settings: detailed description
[2] = Solubility in oil, ethanol and other organic liquids; settings: for Solubility in organic liquids (in words): detailed description; for Solubility in ethanol / Solubility in oil: Table 2, yes/no
[3] = cited from earlier work; for Solubility in water (in words): background statement
[4] = background statement; cited from earlier work
[5] = background statement, cited from earlier work
[6] = Solubility in water; settings: for Solubility in water (in words): detailed description; for Solubility in H2O: Table 2, yes/no
[7] = 5 mg/mL aqueous solution; cited from earlier work
[8] = type: physicochemical
[9] = cited from earlier work
[10] = test system: mice; settings: mouse, in vivo, ip; cited from earlier work
[11] = serum, rapid intravenous injection, patients with cancer

Row | Stability of the base form (in words) [1] | Solubility in water (in words) [6] | SMILES | Solubility in organic liquids (in words) [2] | Solubility in water (in words) [3] | Stability of the basic chemical (in words) [4] | Solubility in organic liquids (in words) [5] | further results
1 | not stable in base form | insoluble in water | COc1cccc2c1C(=O)c1c(O)c3c(c(O)c1C2=O)C[C@@](O)(C(C)=O)C[C@@H]3O[C@H]1C[C@H](N)[C@H](O)[C@H](C)O1 [Daunorubicin base, daunorubicin] | slightly soluble in an organic liquid such as oleic acid, PEG and ethanol | insoluble in water | unstable | slightly soluble in an organic liquid | 
2 |  |  | COc1cccc2c1C(=O)c1c(O)c3c(c(O)c1C2=O)C[C@@](O)(C(C)=O)C[C@@H]3O[C@H]1C[C@H](N)[C@H](O)[C@H](C)O1 [Daunorubicin hydrochloride] |  |  |  |  | Solubility in water (in words) ([3]; hydrochloride): soluble in water
3 |  |  | COc1cccc2c1C(=O)c1c(O)c3c(c(O)c1C2=O)C[C@@](O)(C(=O)CO)C[C@@H]3O[C@H]1C[C@H](N)[C@H](O)[C@H](C)O1 [Doxorubicin Hydrochloride] |  |  |  |  | pH of aqueous solution [7]: 4.0-5.5; Solubility in water (in words) ([3]; hydrochloride): soluble in water
4 |  |  | COc1cccc2c1C(=O)c1c(O)c3c(c(O)c1C2=O)C[C@@](O)(C(=O)CO)C[C@@H]3O[C@H]1C[C@H](N)[C@H](O)[C@H](C)O1 [Doxorubicin base, doxorubicin] | slightly soluble alcohols; also recorded: moderately soluble in anhydrous methanol | insoluble in water | unstable | slightly soluble in an organic liquid | pH in water ([8]; 10 mg in 5 ml of water): 7.9
5 |  |  | COc1cccc2c1C(=O)c1c(O)c3c(c(O)c1C2=O)C[C@@](O)(C(=O)CO)C[C@@H]3O[C@H]1C[C@H](N)[C@@H](O)[C@H](C)O1 [Epirubicin hydrochloride] |  |  |  |  | Solubility in water (in words) ([3]; hydrochloride): soluble in water
6 |  |  | CC[C@]1(O)C[C@@H]2CN(CCc3c([nH]c4ccccc34)[C@@](C(=O)OC)(c3cc4c(cc3OC)N(C)[C@H]3[C@@](O)(C(=O)OC)[C@H](OC(C)=O)[C@]5(CC)C=CCN6CC[C@]43[C@@H]65)C2)C1 [Vinblastine sulphate] |  | One part is soluble in 10 parts of water |  |  | Crossing of the blood brain barrier (in words) ([9]; following IV administration): crosses the blood brain barrier poorly; Solubility in ethanol ([2]; listed as Vinblastine H2SO4): no; Solubility in oil ([2]; listed as Vinblastine H2SO4): no; Solubility in H2O ([6]; listed as Vinblastine H2SO4): yes; Solubility in water (in words) ([6]; listed as Vinblastine sulfate): soluble in water
7 | unstable at room temperature | practically insoluble in water | CC[C@]1(O)C[C@@H]2CN(CCc3c([nH]c4ccccc34)[C@@](C(=O)OC)(c3cc4c(cc3OC)N(C)[C@H]3[C@@](O)(C(=O)OC)[C@H](OC(C)=O)[C@]5(CC)C=CCN6CC[C@]43[C@@H]65)C2)C1 [Vinblastine] | soluble in alcohol, acetone, chloroform, ethyl acetate |  |  |  | Initial half-life [9, 11]: 3.7 min; Middle half-life [9, 11]: 1.6 h; Terminal half-life [9, 11]: 24.8 h; Solubility in ethanol [2]: yes; Solubility in oil [2]: yes; Solubility in water (in words) ([3]; listed as vinblastine): insoluble in water; Solubility in organic liquids (in words) ([5]; listed as vinblastine): slightly soluble in an organic liquid; Solubility in H2O [6]: no; Solubility in water (in words) ([6]; listed as vinblastine base): not soluble in water
8 |  |  | CC[C@]1(O)C[C@H]2CN(CCc3c([nH]c4ccccc34)[C@@](C(=O)OC)(c3cc4c(cc3OC)N(C=O)[C@H]3[C@@](O)(C(=O)OC)[C@H](OC(C)=O)[C@]5(CC)C=CCN6CC[C@]43[C@@H]65)C2)C1 [Vincristine sulfate] |  | freely soluble in water |  |  | Solubility in ethanol ([2]; listed as Vincristine H2SO4): no; Solubility in oil ([2]; listed as Vincristine H2SO4): no; Solubility in H2O ([6]; listed as Vincristine H2SO4): yes
9 | not stable | practically insoluble in water | CC[C@]1(O)C[C@@H]2CN(CCc3c([nH]c4ccccc34)[C@@](C(=O)OC)(c3cc4c(cc3OC)N(C)[C@H]3[C@@](O)(C(N)=O)[C@H](O)[C@]5(CC)C=CCN6CC[C@]43[C@@H]65)C2)C1 [Vindesine] | soluble in alcohol, acetone | insoluble in water | unstable | slightly soluble in an organic liquid | Solubility in ethanol [2]: yes; Solubility in oil [2]: yes; Solubility in H2O [6]: no
10 |  | insoluble in water | COc1cccc2c1C(=O)c1c(O)c3c(c(O)c1C2=O)C[C@@](O)(C(=O)CO)C[C@@H]3O[C@H]1C[C@H](N)[C@@H](O)[C@H](C)O1 [epirubicin base, epirubicin] |  | insoluble in water | unstable | slightly soluble in an organic liquid | Solubility in water [6]: 0.093 mg per ml
11 |  |  | C=C1C[C@@H]2CC[C@@]34C[C@H]5O[C@H]6[C@@H](O3)[C@H]3O[C@H](CC[C@@H]3O[C@H]6[C@H]5O4)CC(=O)C[C@@H]3[C@@H](OC)[C@@H](C[C@H](O)CN)O[C@H]3C[C@H]3O[C@@H](CC[C@@H]1O2)C[C@@H](C)C3=C [eribulin] |  | insoluble in water | unstable | slightly soluble in an organic liquid | 

Row | SMILES | Stability of the base form (in words) [1] | Solubility in water (in words) [6] | Solubility in organic liquids (in words) [2] | Solubility in water (in words) [3] | Stability of the basic chemical (in words) [4] | Solubility in organic liquids (in words) [5] | further results
12 | O=C1c2c(O)ccc(O)c2C(=O)c2c(NCCNCCO)ccc(NCCNCCO)c21 [Mitoxantrone base, mitoxantrone] | the basic form is stable | sparingly soluble in water | slightly soluble in methanol; also recorded: practically insoluble in acetonitrile chloroform and acetone | insoluble in water |  | slightly soluble in an organic liquid | pH in water ([8]; 25 mg in 10 ml water): 9.42
13 | CC[C@]1(O)C[C@H]2CN(CCc3c([nH]c4ccccc34)[C@@](C(=O)OC)(c3cc4c(cc3OC)N(C=O)[C@H]3[C@@](O)(C(=O)OC)[C@H](OC(C)=O)[C@]5(CC)C=CCN6CC[C@]43[C@@H]65)C2)C1 [Vincristine] |  | not soluble in water |  | practically insoluble in water | unstable | soluble in alcohol, acetone, and chloroform | LD50 [10]: 5.2 mg/kg; Solubility in ethanol [2]: yes; Solubility in oil [2]: yes; Solubility in water ([3]; 25° C.): 2.27 µg/mL (≈ 2.75 µM); Solubility in water (in words) ([3]; listed as vincristine): insoluble in water; Solubility in organic liquids (in words) ([5]; listed as vincristine): slightly soluble in an organic liquid; Solubility in H2O [6]: no
